The test addresses T1, recombinant human IL-8 type β receptor (Type II, permissive receptor) (Homo sapiens, UniProt P25025).
T1 construct: expressed in transfected cells; host or cells: Chinese hamster ovary (CHO) cells; membrane preparation
T1 sequence (P25025 1-360): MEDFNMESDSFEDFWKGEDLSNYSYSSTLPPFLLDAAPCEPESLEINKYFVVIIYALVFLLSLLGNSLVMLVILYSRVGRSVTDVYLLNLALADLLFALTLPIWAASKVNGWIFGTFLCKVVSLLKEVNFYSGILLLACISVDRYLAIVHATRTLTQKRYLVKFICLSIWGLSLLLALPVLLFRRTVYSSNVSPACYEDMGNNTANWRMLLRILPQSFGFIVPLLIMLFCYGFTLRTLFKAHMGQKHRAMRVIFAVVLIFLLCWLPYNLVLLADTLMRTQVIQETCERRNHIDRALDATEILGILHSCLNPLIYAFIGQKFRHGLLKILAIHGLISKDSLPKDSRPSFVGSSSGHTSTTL
The experiment in a line: IL-8 receptor binding assay, permissive model (125I IL-8 / 125I Gro-α, CHO membranes). The note with it: recombinant receptor expressed in Chinese hamster ovary cell membranes, compound 0.01 nM to 100 uM. As for the experimental part: The IL-8, and GRO-α chemokine inhibitory effects of compounds of the present invention were determined by the following in vitro assay:
[^125I] IL-8 (human recombinant) was obtained from Amersham Corp., Arlington Heights, Ill., with specific activity 2000 Ci/mmol. GRO-α was obtained from NEN-New England Nuclear. All other chemicals were of analytical grade. High levels of recombinant human IL-8 type α and β receptors were individually expressed in Chinese hamster ovary cells as described previously (Holmes, et al., Science, 1991, 253, 1278). The Chinese hamster ovary membranes were homogenized according to a previously described protocol (Haour, et al., J Biol Chem., 249 pp 2195-2205 (1974)). Except that the homogenization buffer was changed to 10 mM Tris-HCL, 1 mM MgS04, 0.5 mM EDTA (ethylene-diaminetetra-acetic acid), 1 mMPMSF (α-toluenesulphonyl fluoride), 0.5 mg/L Leupeptin, pH 7.5. Membrane protein concentration was determined using Pierce Co. micro-assay kit using bovine serum albumin as a standard. All assays were performed in a 96-well micro plate format. […] The filter was then dried and counted on the Betaplate liquid scintillation counter. […]

For the substance “N-(2,4-Dichloro-3-carboxy)-N′-(2,3-dichlorophenyl)urea”, the “inhibition in the permissive models for IL-8 receptor inhibition” value is “inactive”.

Values taken from patent US20030225125A1, “IL-8 receptor antagonists” (SmithKline Beecham Corporation, priority 1999, published 2003).
